Laboratory results: PubChem BioAssay (NCI)
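In this assay, cells in 96-well plates receive the compound at five concentrations for 48 hours. Endpoints are linearly interpolated between the surrounding concentrations. The concentration for 50% growth inhibition is given as GI50. At the TGI there is no net growth.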

Assays:
Experiment in all cases: NCI-60 cell line screen, 48 h
[1] = tested on: OVCAR-8 ovarian
[2] = tested on: HOP-62 NSCLC
[3] = tested on: HCC-2998 colon
[4] = tested on: K-562 leukemia
[5] = tested on: HCT-116 colon
[6] = tested on: U251 CNS
[7] = tested on: SK-MEL-5 melanoma
[8] = tested on: SF-539 CNS
[9] = tested on: HOP-92 NSCLC
[10] = tested on: HL-60(TB) leukemia

Row | Structure (SMILES) | TGI [1] | TGI [2] | TGI [3] | TGI [4] | TGI [5] | TGI [6] | TGI [7] | TGI [8] | TGI [9] | TGI [10] | GI50 [1] | GI50 [2] | GI50 [3] | GI50 [4] | GI50 [5] | GI50 [6] | GI50 [7] | GI50 [8] | GI50 [9] | GI50 [10]
1 | CCNc1c(C(=O)N(CC)CC)c(=O)[nH]c2ncccc12 | > 100 µM | > 100 µM | > 100 µM | > 100 µM | > 100 µM | > 100 µM | > 100 µM | > 100 µM | > 100 µM | > 100 µM | – | – | – | – | – | – | – | – | – | –
2 | NC(=O)C(Br)CBr (stereo not given) | 4.44 µM | 43.5 µM | 4.78 µM | 5.29 µM | 2.56 µM | 14.7 µM | 14.3 µM | 10.3 µM | 3.1 µM | 3.05 µM | 1.8 µM | 18.4 µM | 2.18 µM | 1.38 µM | 1.3 µM | 3.73 µM | 4.08 µM | 3.01 µM | 1.39 µM | 0.728 µM
3 | O=C(Nc1c(Cl)cc([N+](=O)[O-])cc1Cl)C(=O)C1C(=O)NC(=S)NC1=O | > 100 µM | > 100 µM | > 100 µM | > 100 µM | > 100 µM | > 100 µM | > 100 µM | > 100 µM | > 100 µM | > 100 µM | – | – | – | – | – | – | – | – | – | –
4 | C=C(C)C(=O)OC1CC2(C)OC2CC(OC(C)=O)/C(C)=C/C2OC(=O)C(=C)C21 (stereo not given) | 18.7 µM | 26.5 µM | 15.1 µM | 4.62 µM | 3.61 µM | 25.1 µM | 21.1 µM | 8.57 µM | 12.5 µM | 1.14 µM | – | – | – | – | – | – | – | – | – | –
5 | O=S1(=O)N(Cc2ccccc2)[C@@H](Cc2ccccc2)C2O[C@H]2[C@H](Cc2ccccc2)N1Cc1ccccc1 (stereo not given in full) | > 7.5 µM | > 7.5 µM | > 7.5 µM | > 7.5 µM | > 7.5 µM | > 7.5 µM | > 7.5 µM | > 7.5 µM | > 7.5 µM | > 7.5 µM | > 7.5 µM | > 7.5 µM | > 7.5 µM | 3.34 µM | 0.844 µM | 1.84 µM | 1.79 µM | > 7.5 µM | > 7.5 µM | 4.75 µM
6 | CCCCCCCCCCCCCCCC(=O)OCC1OC(n2cnc3c(=S)nc(N)[nH]c32)C(OC(=O)CCCCCCCCCCCCCCC)C1OC(=O)CCCCCCCCCCCCCCC (stereo not given) | > 50 µM | > 35 µM | > 50 µM | > 50 µM | > 50 µM | > 50 µM | > 50 µM | > 50 µM | > 50 µM | > 50 µM | 3.42 µM | 1.78 µM | 6.88 µM | 2.05 µM | 1.8 µM | 24.1 µM | > 47 µM | 6.95 µM | 3.85 µM | > 35.6 µM
7 | COC(=O)Nc1nc2ccc(Oc3ccc(NC(=O)Nc4cccc(Br)c4)cc3)cc2[nH]1 | > 20 µM | 8.67 µM | > 25 µM | > 12 µM | > 12.6 µM | 5.68 µM | 11.9 µM | > 20.8 µM | 12.7 µM | > 10.6 µM | 4.32 µM | 1.24 µM | 6.04 µM | 0.162 µM | 1.32 µM | 1.78 µM | 0.948 µM | 2.04 µM | 3.33 µM | 1.06 µM
